Reference: US10577363B2, “Substituted piperidine compounds” (EPIZYME, INC., priority 2014, dated 2020)

Tests used:
SMYD3 [1] = biological target: T1, SMYD3 (Homo sapiens (Human), UniProt Q9H7B4); experiment: SMYD3 biochemical assay (SPA, 3H-SAM methylation of MEKK2 protein substrate); conditions: read-out: SMYD3 Biochem IC50 (μM)*
In short: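 Enzyme: untagged full-length human SMYD3 from E. coli; substrate GST-tagged MEKK2 from insect cells. Buffer 25 mM Tris-Cl pH 8.0, 1 mM TCEP, 0.005% BSG/Tween 20. 30 min compound–enzyme preincubation at RT; 3H-SAM/MEKK2 start; stop with cold SAM (100 uM final); SPA readout in cpm.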

SMYD3 [2] = biological target: T1, SMYD3; experiment: SMYD3 cell assay (Trimethyl-MEKK2 In-Cell Western in 293T/17 cells); type: cell-based; conditions: read-out: SMYD3 Cell IC50 (μM)*
In short: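 In-Cell Western readout: methanol-fixed cells stained for trimethyl-MEKK2 and flag tag, ratio per well normalized to DMSO and background controls.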

T1 sequence (Q9H7B4 whole entry): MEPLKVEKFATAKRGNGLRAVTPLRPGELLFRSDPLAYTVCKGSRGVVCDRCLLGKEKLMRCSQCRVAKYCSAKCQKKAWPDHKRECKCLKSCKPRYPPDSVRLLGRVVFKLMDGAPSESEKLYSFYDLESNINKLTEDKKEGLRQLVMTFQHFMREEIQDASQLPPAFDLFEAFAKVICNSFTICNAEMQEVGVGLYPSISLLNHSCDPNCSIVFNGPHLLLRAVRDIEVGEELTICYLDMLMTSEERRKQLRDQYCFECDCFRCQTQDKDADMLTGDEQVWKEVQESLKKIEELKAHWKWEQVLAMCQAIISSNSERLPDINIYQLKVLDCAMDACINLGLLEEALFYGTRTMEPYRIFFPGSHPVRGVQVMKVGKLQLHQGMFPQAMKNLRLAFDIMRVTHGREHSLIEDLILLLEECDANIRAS

Row | Structure (SMILES) | IC50 (SMYD3 [1]) [µM] | IC50 (SMYD3 [2]) [µM] | IC50 (SMYD3 [2]; 293T/17 cells) [µM]
1 | N[C@H]1CC[C@H](C(=O)N2[C@@H]3CC[C@H]2C[C@@H](NC(=O)c2cc(C4CC4)on2)C3)CC1 [compound 102, N-((1R,3R,5S)-8-((1r,4R)-4-aminocyclohexane-1-carbonyl)-8-azabicyclo[3.2.1]octan-3-yl)-5-cyclopropylisoxazole-3-carboxamide] | 0.106 | 1.7 | –
2 | CC1CC(NC(=O)c2cc(C3CC3)on2)CCN1C(=O)Cc1c[nH]cn1 (centres unmarked) [compound 227, N-(1-(2-(1H-imidazol-4-yl)acetyl)-2-methylpiperidin-4-yl)-5-cyclopropylisoxazole-3-carboxamide] | > 10 | > 40 | –
3 | C[C@H]1C[C@@H](NC(=O)c2cc(C3CC3)on2)CCN1S(=O)(=O)CCc1ccccc1 [compound 235, 5-cyclopropyl-N-((2S,4S)-2-methyl-1-(phenethylsulfonyl)piperidin-4-yl)isoxazole-3-carboxamide] | 1.33 | 3.3 | –
4 | C[C@H]1C[C@H](NC(=O)c2cc(C3CC3)on2)CCN1S(=O)(=O)Cc1ccccc1 [compound 244, N-((2S,4R)-1-(benzylsulfonyl)-2-methylpiperidin-4-yl)-5-cyclopropylisoxazole-3-carboxamide] | > 10 | 14.1 | –
5 | NCCCC(=O)N1CC2CCC1CC2NC(=O)c1cc(C2CC2)on1 (centres unmarked) [compound 265, N-(2-(4-aminobutanoyl)-2-azabicyclo[2.2.2]octan-5-yl)-5-cyclopropylisoxazole-3-carboxamide] | 5.45 | – | > 40
6 | C[C@H]1C[C@@H](NC(=O)c2cc(C3CC3)on2)CCN1C(=O)CC(CN)Cc1ccccc1 (stereo partly drawn) [compound 269, N-((2S,4S)-1-(4-amino-3-benzylbutanoyl)-2-methylpiperidin-4-yl)-5-cyclopropylisoxazole-3-carboxamide] | > 10 | – | > 40
7 | C[C@@H]1C[C@@H](NC(=O)c2cc(C3CC3)on2)CCN1C(=O)CC(CN)Cc1ccccc1 (stereo partly drawn) [compound 270, N-((2R,4S)-1-(4-amino-3-benzylbutanoyl)-2-methylpiperidin-4-yl)-5-cyclopropylisoxazole-3-carboxamide] | > 10 | – | > 40
8 | C[C@H]1C[C@H](NC(=O)c2cc(C3CC3)on2)CCN1C(=O)CC(CN)Cc1ccccc1 (stereo partly drawn) [compound 271, N-((2S,4R)-1-(4-amino-3-benzylbutanoyl)-2-methylpiperidin-4-yl)-5-cyclopropylisoxazole-3-carboxamide] | > 10 | – | > 40
9 | C[C@@H]1C[C@H](NC(=O)c2cc(C3CC3)on2)CCN1C(=O)CC(CN)Cc1ccccc1 (stereo partly drawn) [compound 272, N-((2R,4R)-1-(4-amino-3-benzylbutanoyl)-2-methylpiperidin-4-yl)-5-cyclopropylisoxazole-3-carboxamide] | > 10 | – | > 40
10 | C[C@@H]1C[C@@H](NC(=O)c2cc(C3CC3)on2)CCN1S(=O)(=O)c1cn(C)cn1 [compound 283, 5-cyclopropyl-N-((2R,4S)-2-methyl-1-((1-methyl-1H-imidazol-4-yl)sulfonyl)piperidin-4-yl)isoxazole-3-carboxamide] | > 10 | – | > 40
11 | C[C@H]1C[C@H](NC(=O)c2cc(C3CC3)on2)CCN1S(=O)(=O)c1ccccn1 [compound 286, 5-cyclopropyl-N-((2S,4R)-2-methyl-1-(pyridin-2-ylsulfonyl)piperidin-4-yl)isoxazole-3-carboxamide] | > 10 | – | 10.7
12 | C[C@H]1C[C@H](NC(=O)c2cc(C3CC3)on2)CCN1S(=O)(=O)c1cn(C)cn1 [compound 291, 5-cyclopropyl-N-((2S,4R)-2-methyl-1-((1-methyl-1H-imidazol-4-yl)sulfonyl)piperidin-4-yl)isoxazole-3-carboxamide] | > 10 | – | > 40

Next, values leading:

Row | IC50 (SMYD3 [1]) [µM] | IC50 (SMYD3 [2]) [µM] | IC50 (SMYD3 [2]; 293T/17 cells) [µM] | Structure (SMILES)
13 | 0.156 | 2.5 | – | N[C@H]1CC[C@H](C(=O)N2CC3CCC2CC3NC(=O)c2cc(C3CC3)on2)CC1 (some centres unmarked) [compound 88, N-(2-((1r,4r)-4-aminocyclohexane-1-carbonyl)-2-azabicyclo[2.2.2]octan-5-yl)-5-cyclopropylisoxazole-3-carboxamide]
14 | 0.23 | 3.05 | – | CC(C)C1CC(NC(=O)c2cc(C3CC3)on2)CCN1C(=O)[C@H]1CC[C@H](N)CC1 (some centres unmarked) [compound 99, N-(1-((1r,4r)-4-aminocyclohexane-1-carbonyl)-2-isopropylpiperidin-4-yl)-5-cyclopropylisoxazole-3-carboxamide]
15 | 0.0968 | 1.93 | – | O=C(NC1CCN(C(=O)CC2CCNCC2)C(Cc2ccccc2)C1)c1cc(C2CC2)on1 (centres unmarked) [compound 109, N-(2-benzyl-1-(2-(piperidin-4-yl)acetyl)piperidin-4-yl)-5-cyclopropylisoxazole-3-carboxamide]
16 | 0.0994 | 0.893 | – | CC[C@@H]1CC(NC(=O)c2cc(C3CC3)on2)CCN1C(=O)[C@H]1CC[C@H](N)CC1 (stereo partly drawn) [compound 110, N-((2R)-1-((1r,4R)-4-aminocyclohexane-1-carbonyl)-2-ethylpiperidin-4-yl)-5-cyclopropylisoxazole-3-carboxamide]
17 | 0.208 | 1.35 | – | C[C@@H]1CC(NC(=O)c2cc(C3CC3)on2)CCN1C(=O)[C@H]1CC[C@H](N)CO1 (stereo partly drawn) [compound 118, N-((2R)-1-((2R,5S)-5-aminotetrahydro-2H-pyran-2-carbonyl)-2-methylpiperidin-4-yl)-5-cyclopropylisoxazole-3-carboxamide]
18 | 0.274 | 2.24 | – | CN[C@H]1CC[C@H](C(=O)N2CCC(NC(=O)c3cc(C4CC4)on3)C[C@H]2C)CC1 (stereo partly drawn) [compound 124, 5-cyclopropyl-N-((2R)-2-methyl-1-((1r,4R)-4-(methylamino)cyclohexane-1-carbonyl)piperidin-4-yl)isoxazole-3-carboxamide]
19 | 0.282 | 1.81 | – | C[C@@H]1CN(C(=O)[C@H]2CC[C@H](N)CC2)CC[C@@H]1NC(=O)c1cc(C2CC2)on1 [compound 148, N-((3R,4S)-1-((1r,4R)-4-aminocyclohexane-1-carbonyl)-3-methylpiperidin-4-yl)-5-cyclopropylisoxazole-3-carboxamide]
20 | 0.291 | 3.22 | – | C[C@@H]1CN(C(=O)CC2CCNCC2)CC[C@@H]1NC(=O)c1cc(C2CC2)on1 [compound 149, 5-cyclopropyl-N-((3R,4S)-3-methyl-1-(2-(piperidin-4-yl)acetyl)piperidin-4-yl)isoxazole-3-carboxamide]
21 | 0.245 | 1.76 | – | NC1CCC(C(=O)N2CCC(NC(=O)c3cc(C4CC4)on3)C3(CC3)C2)CC1 (centres unmarked) [compound 156, N-(5-((1r,4r)-4-aminocyclohexane-1-carbonyl)-5-azaspiro[2.5]octan-8-yl)-5-cyclopropylisoxazole-3-carboxamide]
22 | 0.274 | 0.983 | – | C[C@@H]1CC(NC(=O)c2cc(C3CC3)on2)CCN1C(=O)C1CC2(CC(N)C2)C1 (stereo partly drawn) [compound 175, N-((2R)-1-(6-aminospiro[3.3]heptane-2-carbonyl)-2-methylpiperidin-4-yl)-5-cyclopropylisoxazole-3-carboxamide]
23 | 0.00409 | 0.831 | – | C[C@H]1C[C@@H](NC(=O)c2cc(C3CC3)on2)CCN1S(=O)(=O)CCCN [compound 187]
24 | 0.0559 | 1.24 | – | C[C@@H]1C[C@H](NC(=O)c2cc(C3CC3)on2)CCN1S(=O)(=O)CCCN [compound 189, N-((2R,4R)-1-((3-aminopropyl)sulfonyl)-2-methylpiperidin-4-yl)-5-cyclopropylisoxazole-3-carboxamide]
25 | 0.142 | 1.31 | – | C[C@@H]1CC(NC(=O)c2cc(C3CC3)on2)CCN1C(=O)C12C3C4C1C1C2C3C41N (stereo partly drawn) [compound 202, N-((2R)-1-(4-aminocubane-1-carbonyl)-2-methylpiperidin-4-yl)-5-cyclopropylisoxazole-3-carboxamide]
26 | 0.321 | 2.9 | – | NCCCS(=O)(=O)N1CCC(NC(=O)c2cc(C3CC3)on2)CC1 [compound 210, N-(1-((3-aminopropyl)sulfonyl)piperidin-4-yl)-5-cyclopropylisoxazole-3-carboxamide]
27 | 0.23 | 1.42 | – | CC1(NC(=O)c2cc(C3CC3)on2)CCN(S(=O)(=O)CCCN)CC1 [compound 218, N-(1-((3-aminopropyl)sulfonyl)-4-methylpiperidin-4-yl)-5-cyclopropylisoxazole-3-carboxamide]
28 | 0.0322 | – | 0.569 | CC1CN(C(=O)[C@H]2CC[C@H](N)CC2)C(C)CC1NC(=O)c1cc(C2CC2)on1 (some centres unmarked) [compound 263, N-(1-((1r,4r)-4-aminocyclohexane-1-carbonyl)-2,5-dimethylpiperidin-4-yl)-5-cyclopropylisoxazole-3-carboxamide]
29 | 0.433 | – | 1.42 | C[C@H]1C[C@@H](NC(=O)c2cc(C3CC3)on2)CCN1S(=O)(=O)Cc1ccccc1 [compound 274, N-((2S,4S)-1-(benzylsulfonyl)-2-methylpiperidin-4-yl)-5-cyclopropylisoxazole-3-carboxamide]
30 | 0.154 | – | 0.676 | C[C@H]1C[C@@H](NC(=O)c2cc(C3CC3)on2)CCN1S(=O)(=O)c1ccccn1 [compound 275, 5-cyclopropyl-N-((2S,4S)-2-methyl-1-(pyridin-2-ylsulfonyl)piperidin-4-yl)isoxazole-3-carboxamide]
31 | 4.84 | – | 7.19 | C[C@@H]1C[C@H](NC(=O)c2cc(C3CC3)on2)CCN1S(=O)(=O)c1ccccn1 [compound 293, 5-cyclopropyl-N-((2R,4R)-2-methyl-1-(pyridin-2-ylsulfonyl)piperidin-4-yl)isoxazole-3-carboxamide]
